Results: patent publication US20100056508A1, “AMINE DERIVATIVES AND THEIR USE IN BETA-2-ADRENORECEPTOR MEDIATED DISEASES” (ASTRAZENECA AB, priority 2006, published 2010)
Where a name gives a salt, the structure may show the parent alone.

Tests used:
[1] = molecular target: T1, recombinant human adrenergic beta 1 receptors (Homo sapiens, UniProt P08588); assay: Adrenergic β1 selectivity assay, [125I]-Iodocyanopindolol binding to membranes; details: inhibition of [125I]-Iodocyanopindolol binding, read-out: β1 bind pIC50 (converted)
T1 construct: purchased Euroscreen
T1 sequence (P08588 whole entry): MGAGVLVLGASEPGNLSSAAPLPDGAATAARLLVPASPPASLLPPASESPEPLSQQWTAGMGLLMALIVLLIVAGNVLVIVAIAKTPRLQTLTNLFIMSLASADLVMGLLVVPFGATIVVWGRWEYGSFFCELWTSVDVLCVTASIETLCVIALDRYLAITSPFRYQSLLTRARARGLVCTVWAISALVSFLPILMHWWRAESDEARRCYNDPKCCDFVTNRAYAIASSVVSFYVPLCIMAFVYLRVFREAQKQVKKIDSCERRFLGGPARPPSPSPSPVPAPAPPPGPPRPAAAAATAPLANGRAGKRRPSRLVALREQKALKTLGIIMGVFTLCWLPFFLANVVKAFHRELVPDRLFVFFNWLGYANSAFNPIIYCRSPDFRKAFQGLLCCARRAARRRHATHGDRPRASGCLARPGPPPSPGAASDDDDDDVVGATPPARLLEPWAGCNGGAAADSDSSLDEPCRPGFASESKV
How it was run: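 Displacement of [^125I]-Iodocyanopindolol (0.036 nM final) from human β1 receptor membranes, 2 hours at room temperature, pH 7.4 HEPES/EDTA/NaCl buffer. After filtration, scintillation counting; NSB set with 10 μM propranolol and subtracted. Four-parameter logistic fitting gave pIC50.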

[2] = molecular target: T2, recombinant human Dopamine Subtype D2s receptors (Homo sapiens, UniProt P14416); assay: Dopamine D2 selectivity assay, [3H]-spiperone binding to membranes; details: inhibition of [3H]-spiperone binding, read-out: D2 bind pIC50 (converted)
T2 construct: purchased Perkin Elmer
T2 sequence (P14416 1-414 isoform P14416-2): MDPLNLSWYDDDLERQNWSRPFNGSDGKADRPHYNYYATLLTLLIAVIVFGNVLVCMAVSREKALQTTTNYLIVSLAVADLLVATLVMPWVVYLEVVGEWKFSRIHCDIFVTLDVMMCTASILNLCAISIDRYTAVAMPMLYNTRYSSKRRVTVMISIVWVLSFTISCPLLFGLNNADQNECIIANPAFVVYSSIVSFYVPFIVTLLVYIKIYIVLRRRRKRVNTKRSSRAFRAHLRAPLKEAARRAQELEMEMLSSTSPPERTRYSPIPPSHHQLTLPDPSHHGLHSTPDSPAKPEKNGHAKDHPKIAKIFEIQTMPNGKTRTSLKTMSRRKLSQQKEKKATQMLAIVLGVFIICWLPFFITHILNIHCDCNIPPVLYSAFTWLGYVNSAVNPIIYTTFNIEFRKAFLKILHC
How it was run: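 Human D2s receptor membranes incubated 2 h at room temperature with 0.16 nM [3H]-spiperone and test compound in HEPES buffer pH 7.4 (120 mM NaCl, 0.1% gelatin). Non-specific binding defined with 10 μM haloperidol; filter-bound radioactivity counted, pIC50 from four-parameter logistic fit.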

IC50 [1]	IC50 [2]	Compound
1000 nM	50.1 nM	CCCC[C@@H](C)N(CCNCCc1ccc(O)c2c1OCC(=O)N2)C(=O)CCNCCc1ccc(Cl)c(Cl)c1 [Example 55, (R)-3-(3,4-Dichlorophenethylamino)-N-(hexan-2-yl)-N-(2-(2-(5-hydroxy-3-oxo-3,4-dihydro-2H-benzo[b][1,4]oxazin-8-yl)ethylamino)ethyl)propanamide bis(trifluoroacetate)]
2000 nM	31.6 nM	CCCC[C@@H](C)N(CCNCCc1ccc(O)c2c1OCC(=O)N2)C(=O)CCNCCc1cc(C)ccc1F [Example 56, (R)-3-(2-Fluoro-5-methylphenethylamino)-N-(hexan-2-yl)-N-(2-(2-(5-hydroxy-3-oxo-3,4-dihydro-2H-benzo[b][1,4]oxazin-8-yl)ethylamino)ethyl)propanamide bis(trifluoroacetate)]
2000 nM	39.8 nM	CC[C@@H](C)N(CCNCCc1ccc(O)c2c1OCC(=O)N2)C(=O)CCNCCc1ccc(Cl)c(Cl)c1 [Example 58, (R)—N-sec-Butyl-3-(3,4-dichlorophenethylamino)-N-(2-(2-(5-hydroxy-3-oxo-3,4-dihydro-2H-benzo[b][1,4]oxazin-8-yl)ethylamino)ethyl)propanamide dihydrochloride]
2000 nM	100 nM	CC(C)[C@@H](C)N(CCNCCc1ccc(O)c2c1OCC(=O)N2)C(=O)CCNCCc1ccc(Cl)c(Cl)c1 [Example 59, (R)-3-(3,4-Dichlorophenethylamino)-N-(2-(2-(5-hydroxy-3-oxo-3,4-dihydro-2H-benzo[b][1,4]oxazin-8-yl)ethylamino)ethyl)-N-(3-methylbutan-2-yl)propanamide dihydrochloride]
501 nM	100 nM	C[C@H](C1CCCCC1)N(CCNCCc1ccc(O)c2c1OCC(=O)N2)C(=O)CCNCCc1ccccc1 [Example 61, (R)—N-(1-Cyclohexylethyl)-N-(2-(2-(5-hydroxy-3-oxo-3,4-dihydro-2H-benzo[b][1,4]oxazin-8-yl)ethylamino)ethyl)-3-(phenethylamino)propanamide bis(trifluoroacetate)]
251 nM	63.1 nM	Cc1cc(CCNCCC(=O)N(CCNCCc2ccc(O)c3c2OCC(=O)N3)C2CCCCCC2)ccc1F [Example 62, N-Cycloheptyl-3-(4-fluoro-3-methylphenethylamino)-N-(2-(2-(5-hydroxy-3-oxo-3,4-dihydro-2H-benzo[b][1,4]oxazin-8-yl)ethylamino)ethyl)propanamide bis(trifluoroacetate)]
251 nM	39.8 nM	O=C1COc2c(CCNCCN(C(=O)CCNCCc3ccc(Cl)cc3)C3CCCCCC3)ccc(O)c2N1 [Example 63, 3-(4-Chlorophenethylamino)-N-cycloheptyl-N-(2-(2-(5-hydroxy-3-oxo-3,4-dihydro-2H-benzo[b][1,4]oxazin-8-yl)ethylamino)ethyl)propanamide bis(trifluoroacetate)]
1260 nM	63.1 nM	O=C1COc2c(CCNCCN(C(=O)CCNCCc3cc(F)ccc3F)C3CCCCCC3)ccc(O)c2N1 [Example 64, N-Cycloheptyl-3-(2,5-difluorophenethylamino)-N-(2-(2-(5-hydroxy-3-oxo-3,4-dihydro-2H-benzo[b][1,4]oxazin-8-yl)ethylamino)ethyl)propanamide bis(trifluoroacetate)]
2510 nM	126 nM	O=C1COc2c(CCNCCN(C(=O)CCNCCc3cc(F)cc(F)c3)C3CCCCCC3)ccc(O)c2N1 [Example 65, N-Cycloheptyl-3-(3,5-difluorophenethylamino)-N-(2-(2-(5-hydroxy-3-oxo-3,4-dihydro-2H-benzo[b][1,4]oxazin-8-yl)ethylamino)ethyl)propanamide bis(trifluoroacetate)]
1580 nM	39.8 nM	O=C1COc2c(CCNCCN(C(=O)CCNCCc3cc(F)cc(Cl)c3)C3CCCCCC3)ccc(O)c2N1 [Example 66, 3-(3-Chloro-5-fluorophenethylamino)-N-cycloheptyl-N-(2-(2-(5-hydroxy-3-oxo-3,4-dihydro-2H-benzo[b][1,4]oxazin-8-yl)ethylamino)ethyl)propanamide bis(trifluoroacetate)]
1000 nM	100 nM	O=C1COc2c(CCNCCN(C(=O)CCNCCc3ccc(F)c(F)c3)C3CCCCCC3)ccc(O)c2N1 [Example 67, N-Cycloheptyl-3-(3,4-difluorophenethylamino)-N-(2-(2-(5-hydroxy-3-oxo-3,4-dihydro-2H-benzo[b][1,4]oxazin-8-yl)ethylamino)ethyl)propanamide bis(trifluoroacetate)]
398 nM	100 nM	O=C1COc2c(CCNCCN(C(=O)CCNCCc3cccc(Cl)c3)C3CCCCCC3)ccc(O)c2N1 [Example 68, 3-(3-Chlorophenethylamino)-N-cycloheptyl-N-(2-(2-(5-hydroxy-3-oxo-3,4-dihydro-2H-benzo[b][1,4]oxazin-8-yl)ethylamino)ethyl)propanamide bis(trifluoroacetate)]
794 nM	158 nM	O=C1COc2c(CCNCCN(C(=O)CCNCCc3cccc(F)c3)C3CCCCCC3)ccc(O)c2N1 [Example 69, N-Cycloheptyl-3-(3-fluorophenethylamino)-N-(2-(2-(5-hydroxy-3-oxo-3,4-dihydro-2H-benzo[b][1,4]oxazin-8-yl)ethylamino)ethyl)propanamide bis(trifluoroacetate)]
3980 nM	1000 nM	O=C1COc2c(CCNCCN(C(=O)CCOCCc3ccccc3)C3CCCCC3)ccc(O)c2N1 [Example 70, N-Cyclohexyl-N-(2-(2-(5-hydroxy-3-oxo-3,4-dihydro-2H-benzo[b][1,4]oxazin-8-yl)ethylamino)ethyl)-3-phenethoxypropanamide trifluoroacetate]
2510 nM	2000 nM	O=C1COc2c(CCNCCN(C(=O)CCOCCc3cccc(F)c3)C3CCCCC3)ccc(O)c2N1 [Example 74, N-Cyclohexyl-3-(3-fluorophenethoxy)-N-(2-(2-(5-hydroxy-3-oxo-3,4-dihydro-2H-benzo[b][1,4]oxazin-8-yl)ethylamino)ethyl)propanamide trifluoroacetate]
1260 nM	2000 nM	O=C1COc2c(CCNCCN(C(=O)CCOCCc3ccc(F)cc3)C3CCCCC3)ccc(O)c2N1 [Example 75, N-Cyclohexyl-3-(4-fluorophenethoxy)-N-(2-(2-(5-hydroxy-3-oxo-3,4-dihydro-2H-benzo[b][1,4]oxazin-8-yl)ethylamino)ethyl)propanamide trifluoroacetate]
2000 nM	2510 nM	O=C1COc2c(CCNCCN(C(=O)CCOCCc3ccccc3F)C3CCCCC3)ccc(O)c2N1 [Example 76, N-Cyclohexyl-3-(2-fluorophenethoxy)-N-(2-(2-(5-hydroxy-3-oxo-3,4-dihydro-2H-benzo[b][1,4]oxazin-8-yl)ethylamino)ethyl)propanamide trifluoroacetate]

Compound	IC50 [1]	IC50 [2]
CCCC[C@@H](C)N(CCNCCc1ccc(O)c2c1OCC(=O)N2)C(=O)CCNCCc1cc(F)ccc1C [Example 57, (R)-3-(5-Fluoro-2-methylphenethylamino)-N-(hexan-2-yl)-N-(2-(2-(5-hydroxy-3-oxo-3,4-dihydro-2H-benzo[b][1,4]oxazin-8-yl)ethylamino)ethyl)propanamide bis(trifluoroacetate)]	1580 nM	15.8 nM
